Source: ChEMBL document CHEMBL1150792, “Enterobacteriaceae bloodstream infections: presence of integrons, risk factors, and outcome” (2007)

What was measured:
Enterobacteriaceae [1] = test: Antimicrobial activity against non-integron carrying Enterobacteriaceae assessed as percent resistant isolates; type: functional
Enterobacteriaceae [2] = test: Antimicrobial activity against integron carrying Enterobacteriaceae assessed as percent resistant isolates; type: functional

Molecule | Activity (Enterobacteriaceae [1]) [%] | Activity (Enterobacteriaceae [2]) [%]
CO[C@@]1(NC(=O)Cc2cccs2)C(=O)N2C(C(=O)O)=C(COC(N)=O)CS[C@@H]21 (single isomer, unassigned) [CEFOXITIN] | 16.6 | 40
NCC[C@H](O)C(=O)N[C@@H]1C[C@H](N)[C@@H](O[C@H]2O[C@H](CN)[C@@H](O)[C@H](O)[C@H]2O)[C@H](O)[C@H]1O[C@H]1O[C@H](CO)[C@@H](O)[C@H](N)[C@H]1O [AMIKACIN] | 4.2 | 29.7
CC1(C)S[C@@H]2[C@H](NC(=O)[C@H](N)c3ccccc3)C(=O)N2[C@H]1C(=O)O [AMPICILLIN] | 60 | 96.3
C[C@H]1[C@H](NC(=O)/C(=N\OC(C)(C)C(=O)O)c2csc(N)n2)C(=O)N1S(=O)(=O)O [AZTREONAM] | 9.4 | 26.9
CO/N=C(\C(=O)N[C@@H]1C(=O)N2C(C(=O)[O-])=C(C[N+]3(C)CCCC3)CS[C@H]12)c1csc(N)n1 [CEFEPIME] | 6.2 | 29.5
CO/N=C(\C(=O)N[C@@H]1C(=O)N2C(C(=O)O)=C(COC(C)=O)CS[C@H]12)c1csc(N)n1 [CEFOTAXIME] | 6.9 | 41.3
CC(C)(O/N=C(\C(=O)N[C@@H]1C(=O)N2C(C(=O)[O-])=C(C[n+]3ccccc3)CS[C@H]12)c1csc(N)n1)C(=O)O [CEFTAZIDIME] | 4.9 | 36.3
CO/N=C(\C(=O)N[C@@H]1C(=O)N2C(C(=O)O)=C(COC(N)=O)CS[C@H]12)c1ccco1 [CEFUROXIME] | 21.9 | 46.9
O=C(O)c1cn(C2CC2)c2cc(N3CCNCC3)c(F)cc2c1=O [CIPROFLOXACIN] | 6.9 | 49.4
COc1cc(Cc2cnc(N)nc2N)cc(OC)c1OC.Cc1cc(NS(=O)(=O)c2ccc(N)cc2)no1 [CO-TRIMOXAZOLE] | 14.5 | 87.7
C[C@@H](O)[C@H]1C(=O)N2C(C(=O)O)=C(SCCNC=N)C[C@H]12 [IMIPENEM ANHYDROUS] | 1.2 | 7.6
C[C@@H](O)[C@H]1C(=O)N2C(C(=O)O)=C(S[C@@H]3CN[C@H](C(=O)N(C)C)C3)[C@H](C)[C@H]12 [MEROPENEM] | 2 | 6
CCN1CCN(C(=O)N[C@@H](C(=O)N[C@@H]2C(=O)N3[C@@H]2SC(C)(C)[C@@H]3C(=O)O)c2ccccc2)C(=O)C1=O [PIPERACILLIN] | 32.1 | 90.2
NC[C@H]1O[C@H](O[C@H]2[C@H](O)[C@@H](O[C@H]3O[C@H](CO)[C@@H](O)[C@H](N)[C@H]3O)[C@H](N)C[C@@H]2N)[C@H](N)C[C@@H]1O [TOBRAMYCIN] | 8.5 | 41.8
COLISTIMETHATE SODIUM | 12.5 | 12.5
